The record followed here is a melting point compilation (Tetko et al.; mined from patent text by program, amines drawn as free bases though some values may be those of a salt).

The molecule `N#CC(C#N)=C1N(CCCN2CCCCC2)CCN1C1CCN(CCF)CC1` had a melting point of 56 to 57 °C.
Take `CC(CO)Nc1ccc(-c2cccc(C(F)(F)F)c2)nn1` (stereo not given): the melting point was in the range of 143 to 144 °C.
Take `Cc1cc(-c2nc3cccnn3c2-c2ccnc(NC(=O)NC3CCC(O)CC3)c2)ccc1F` (stereo not given): the melting point was in the range of 218 to 220 °C.
In turn, `NS(=O)(=O)C1(c2cnn(CC(F)=C(F)F)c(=O)c2-c2ccc(F)cc2)C=CC=CC1` (stereo not given) registered a melting point of 173 to 175 °C.
Under `Cn1cc(-c2cccc(C(F)(F)F)c2)c(=O)n1-c1cccc(C(F)(F)F)c1` stands 110 to 111 °C; under `CCn1cc(C(=O)O)c(=O)c2cc(F)c(N3Cc4ccc(C(=O)OC)cc4C3)cc21`, greater than 300 °C; under `COc1cc2c3c(ccc(N)c3c1N)C(=O)N(O)C2=O`, 317 to 318 °C.
`COc1ccc([C@H](Sc2cc(Cc3ccccc3)ccc2N)[C@@H](O)C(=O)O)cc1` registered a melting point of 155 to 158 °C.
With `COC(C)(C)C(C#N)=NO`, the melting point lay within 102 to 104 °C.
`CC(C)(CN)Cc1ccc(CC(C)(C)CN)cc1`: the melting point was in the range of 53 to 56 °C.
As for `C=CCOc1noc2ccc(N3C(=O)C4=C(CCCC4)C3=O)cc12`, the melting point lay in the range of 88 to 89 °C.
In turn, `Nc1cc(C=O)nc(C2CCCO2)c1F` (stereo not given) returned a melting point of 122 to 123 °C.
Consider `CCOC(=O)c1ncn(-c2nc(C)c(Cl)s2)c1S(N)(=O)=O`, for which the melting point lay in the range of 136 to 139 °C.
The value for `COc1cc(Nc2nccc(-c3sc(NCCc4ccccc4)nc3C)n2)cc(OC)c1` was 201 to 202 °C; that for `COC(=O)c1nsc2ccc(-n3c(=O)cc(C(F)(F)F)n(C)c3=O)cc12` was 153 to 156 °C; that for `CC(=O)OC1OCC[C@@H]1NC(=O)[C@H](CC(C)C)NC(=O)OCc1ccccc1` (stereo not given in full) was 158 to 159 °C.
Regarding `Nc1cccc(-c2cc3ccccc3[nH]2)c1`, the melting point came to 166 °C.
On to `OCc1ccc2c(c1)COC2c1ccc(F)cc1` (stereo not given), for which the melting point is 101 to 104 °C.
Molecule `COC(=O)c1ncoc1C(C)C` returned a melting point of 49 to 50 °C.
In the case of `O=C(OCc1ccccc1)N1C(=O)[C@H](O)[C@@H]1c1ccccc1`, the melting point was in the range of 105 to 106 °C.
In turn, `COc1cccc(-c2cccc(OC3SCC(OC(C)=O)C(OC(C)=O)C3OC(C)=O)c2)n1` (stereo not given) came in with a melting point of 195 °C.
As for `Cc1cnc(NC(=O)C2=C(O)c3ccc4ccccc4c3S(=O)(=O)N2C)s1`, the melting point was 249 to 250 °C.
The molecule `O=C(CCCCCNC(=O)c1cccc2ccccc12)NO` gave a melting point of 118 to 119 °C.
Molecule `CCCc1c(OCCCCCOc2cc(OCCCC(=O)O)ccc2CCC(=O)O)ccc2c1OCCC2=O` displayed a melting point of 163 to 164 °C.
With `O=c1cc(N2CCCC(CO)C2)oc2c1ccc1ccccc12` (stereo not given), the melting point lay within 209 to 210 °C.
For `CC(=O)c1c(C)c2cnc(Nc3ccc(N4CCOCC4)nc3)nc2n(C2CCCC2)c1=O`, the melting point is 224 to 226 °C.
Under `CCCCCCCCCCCCCCCCCC(=O)c1c[nH]c2cc(C(=O)O)ccc12` stands 268 to 270 °C; under `CC(C)(C)OC(=O)NCC[C@H]1CC[C@H](COS(C)(=O)=O)CC1`, 83 to 84 °C; under `OCCCc1ccc(Nc2ncc(-c3ccccc3)s2)nc1`, 153 to 154 °C.
Under `CCCOCCn1c(CN2CCN(C)CC2)nc2ccccc21` stands 73 to 75.5 °C.
`C=CCCc1ccc(C(=O)O)c(O)n1` yielded a melting point of 151 to 155 °C.
Regarding `CC(C)(C)OC(=O)N1CCC(COc2ccc(C=NO)cc2)CC1`, the melting point lay in the range of 140 to 142 °C.
Under `O=C1CCC(N2Cc3cc(CNC(=O)Nc4c(Cl)cccc4Cl)ccc3C2=O)C(=O)N1` (stereo not given) stands 238 to 240 °C; under `CCc1cc(C(=O)O)c2cc(C(C)C)cccc1-2`, 154 to 156 °C.
Take `CCOC(=O)CCN(C)Cc1ccc(NC(=O)C2=Cc3cc(-c4ccc(N5CCOCC5)cc4)ccc3S(=O)(=O)CC2)cc1`: the melting point lay in the range of 209 to 211 °C.
Molecule `CCCCOc1cc(CCS(=O)(=O)NC(=O)OCCC)n(Cc2ccc(Cl)cc2Cl)n1` had a melting point of 92 to 94 °C.
On to `CC1(CN)CN(c2c(F)cc3c(=O)c(C(=O)O)cn(C4CC4)c3c2F)C1`, for which the melting point lay in the range of 268 to 270 °C.
Molecule `CCCN1CC=C(c2c(C)[nH]c3cc(OC)ccc23)CC1` displayed a melting point of 90 to 95 °C.
Molecule `COc1cc(Cl)c(C=O)c(Cl)c1` registered a melting point of 107 to 109 °C.
In the case of `CCCCCCCCS(=O)c1ccc(CC(N)(CO)CO)cc1` (stereo not given), the melting point was 80 to 82 °C.
The value for `CCOC(=O)N1C=CC(c2c(-c3ccccc3)nn3ccccc23)C(Cl)=N1` (stereo not given) was 130 to 132 °C; that for `CCOc1ccc2c(c1)C(C)(c1cc(NC(=O)c3cccnc3)ccc1Cl)C(=O)N2S(=O)(=O)c1ccc(C(=O)NC(C)(C)C)cc1OC` (stereo not given) was 192 °C; that for `Cc1c(-c2cccc(C(F)(F)F)c2F)c2cccc(Cl)c2n1CCCNS(C)(=O)=O` was 168 °C.
Turning to `CC(C)(C)OC(=O)N(C(=O)OC(C)(C)C)c1cc(-c2ccc([N+](=O)[O-])cc2)n(C(=O)OC(C)(C)C)n1`, the melting point lay in the range of 154 to 155 °C.
In turn, `Cc1cc(C=Cc2ccccc2OCC(O)CNC(C)(C)C)on1` (stereo not given) returned a melting point of 83 to 85 °C.
On to `Cc1ccc(C2c3c(C)c(Br)c(C)c(C=O)c3OC2(C)C)cc1` (stereo not given), for which the melting point lay within 128 to 130 °C.
For the molecule `COc1c(C)cc(C(=O)c2ccc(Cl)cc2)c(OC)c1OC`, the melting point fell in the range of 99.5 to 100 °C.
In turn, `N#Cc1ccc(C(=O)Nc2ccc(Cl)c([N+](=O)[O-])c2)cc1` yielded a melting point of 213 °C.
Under `CC(=O)C1CCC2C3CCC4CC(O)CCC4(C)C3C(O)CC12C` (stereo not given) stands 152 to 154 °C; under `CNCCN1C(=O)[C@H](O)[C@H](c2ccc(OC)cc2)Sc2cc(Cl)ccc21`, 142 to 145 °C.
As for `NC(=S)NN1CCOCC1`, the melting point stood at 168 °C.
The molecule `COc1cc(N)c(Cl)cc1C(=O)NCC1CNCCO1` (stereo not given) returned a melting point of 161 to 162 °C.
`O=C(O)CCCCCCCc1nn(-c2ccccc2)c2c1CCC2` gave a melting point of 55 to 57 °C.
Regarding `Cn1ncc(-c2ccc(OCCCCl)cc2)cc1=O`, the melting point was in the range of 90 to 91 °C.
Molecule `CC(OS(C)(=O)=O)C(C)N1C(=O)c2ccccc2C1=O` (stereo not given) displayed a melting point of 67 to 73 °C.
Under `BrCc1ccccc1-c1ccccc1CBr` stands 85 to 88 °C; under `Cc1ccc(O)c2c1C(C(=O)N(Cc1ccc(N(C)C)cc1)c1ccc(C(C)C)cc1)CCC2` (stereo not given), 190 °C; under `O=C(O)CNC(=O)CCCC1CCCCC1`, 85 to 88 °C.
`O=C(O)C1=C(SCc2ccccc2)CCC1` displayed a melting point of 233 °C.
As for `CC1CCN(C(=O)[C@H](CCCSc2ccccn2)NS(=O)(=O)c2ccc3ccccc3c2)CC1`, the melting point lay in the range of 131 to 132 °C.
`COc1cc(C=O)ccc1OCCCCCCO` came in with a melting point of 55 to 56 °C.
Under `COC(=O)c1ccc(-c2ccc(C#N)cc2)nc1` stands 142 to 144 °C; under `CNS(=O)(=O)/C=C/c1ccc2c(c1)c(C1CCN(C)CC1)cn2C`, 155 to 159 °C; under `CCNC(=O)c1ccc(C2(C(N)=O)CN(C(=O)OC(C)(C)C)CCc3c2cc(CC)c(CC)c3Cl)cc1` (stereo not given), 89 to 95 °C.
For the molecule `CC1=NC(=Cc2ccc(F)cc2)C(=O)O1`, the melting point was determined as 156 °C.

Usually melting point stands for the temperature of the solid-liquid transition.
